# Reference: the supplement of paper PMC5321775
# ± gives the standard deviation of the averaged measurements or the uncertainty stated by the source.
# How the values were obtained:
# [1] = system: Caenorhabditis briggsae AF16; assay: mean adult lifespan of treated plate (days); higher = longer lifespan; conditions: exposure: chronic from day 1 of adulthood
# Experimental: (§1)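 Dose-response lifespan assays in three C. briggsae strains (AF16, HK104, JU1348), run per plate (35-40 animals) on NGM with live OP50-1 and 51 uM FUdR at 20 C. Compound was added to the plate surface and worms were exposed from the first day of adulthood.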
# [2] = system: Caenorhabditis briggsae HK104; assay: as above; conditions: exposure: chronic from day 1 of adulthood
# Experimental: as §1
# [3] = system: Caenorhabditis briggsae JU1348; assay: as above; conditions: exposure: chronic from day 1 of adulthood
# Experimental: as §1
# [4] = system: Caenorhabditis briggsae AF16; assay: mean adult lifespan of treated cohort (days); higher = longer lifespan; conditions: exposure: chronic from day 1 of adulthood, single dose per compound (concentration not stated in sheet)
# Experimental: (§2)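 Caenorhabditis lifespan assay (CITP). Synchronised hermaphrodites were moved on the first day of adulthood onto 35 mm NGM plates with live E. coli OP50-1 and 51 uM FUdR, with the compound spread on the plate. Worms were kept at 20 C and scored for survival.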
# [5] = system: Caenorhabditis briggsae HK104; assay: as above; conditions: exposure: chronic from day 1 of adulthood, single dose per compound (concentration not stated in sheet)
# Experimental: as §2
# [6] = system: Caenorhabditis briggsae JU1348; assay: as above; conditions: exposure: chronic from day 1 of adulthood, single dose per compound (concentration not stated in sheet)
# Experimental: as §2
# [7] = system: Caenorhabditis elegans JU775; assay: as above; conditions: exposure: chronic from day 1 of adulthood, single dose per compound (concentration not stated in sheet)
# Experimental: as §2
# [8] = system: Caenorhabditis elegans MY16; assay: as above; conditions: exposure: chronic from day 1 of adulthood, single dose per compound (concentration not stated in sheet)
# Experimental: as §2
# [9] = system: Caenorhabditis elegans N2; assay: as above; conditions: exposure: chronic from day 1 of adulthood, single dose per compound (concentration not stated in sheet)
# Experimental: as §2
# [10] = system: Caenorhabditis briggsae AF16; assay: Kaplan-Meier median lifespan of treated plate (days); higher = longer lifespan; conditions: exposure: chronic from day 1 of adulthood
# Experimental: as §1
# [11] = system: Caenorhabditis briggsae HK104; assay: as above; conditions: exposure: chronic from day 1 of adulthood
# Experimental: as §1
# [12] = system: Caenorhabditis briggsae JU1348; assay: as above; conditions: exposure: chronic from day 1 of adulthood
# Experimental: as §1
# [13] = system: Caenorhabditis briggsae AF16; assay: Kaplan-Meier median lifespan of treated cohort (days); higher = longer lifespan; conditions: exposure: chronic from day 1 of adulthood, single dose per compound (concentration not stated in sheet)
# Experimental: as §2
# [14] = system: Caenorhabditis briggsae HK104; assay: as above; conditions: exposure: chronic from day 1 of adulthood, single dose per compound (concentration not stated in sheet)
# Experimental: as §2
# [15] = system: Caenorhabditis briggsae JU1348; assay: as above; conditions: exposure: chronic from day 1 of adulthood, single dose per compound (concentration not stated in sheet)
# Experimental: as §2
# [16] = system: Caenorhabditis elegans JU775; assay: as above; conditions: exposure: chronic from day 1 of adulthood, single dose per compound (concentration not stated in sheet)
# Experimental: as §2
# [17] = system: Caenorhabditis elegans MY16; assay: as above; conditions: exposure: chronic from day 1 of adulthood, single dose per compound (concentration not stated in sheet)
# Experimental: as §2
# [18] = system: Caenorhabditis elegans N2; assay: as above; conditions: exposure: chronic from day 1 of adulthood, single dose per compound (concentration not stated in sheet)
# Experimental: as §2
structure (smiles),measurement,setting,value
Cc1ccc2c(c1)sc(-c1ccc(N(C)C)cc1)[n+]2C [Thioflavin T],mean adult lifespan of treated plate,[1]; 5.3 µM,28.1 ± 1.5
same,mean adult lifespan of treated plate,[1]; 26.5 µM,17 ± 1
same,mean adult lifespan of treated plate,[1]; 106 µM,5.48 ± 0.12
same,mean adult lifespan of treated plate,[1]; 530 µM,5.75 ± 0.26
same,mean adult lifespan of treated plate,[2]; 5.3 µM,33.5 ± 1.7
same,mean adult lifespan of treated plate,[2]; 26.5 µM,30.8 ± 3.1
same,mean adult lifespan of treated plate,[2]; 106 µM,5.61 ± 0.26
same,mean adult lifespan of treated plate,[2]; 530 µM,5.71 ± 0.35
same,mean adult lifespan of treated plate,[3]; 0.5 µM,24.1 ± 1.1
same,mean adult lifespan of treated plate,[3]; 5 µM,24.3 ± 1.2
same,mean adult lifespan of treated plate,[3]; 5.3 µM,19.49 ± 0.17
same,mean adult lifespan of treated plate,[3]; 25 µM,25.9 ± 1.1
same,mean adult lifespan of treated plate,[3]; 26.5 µM,28.3 ± 1.2
same,mean adult lifespan of treated plate,[3]; 100 µM,21.5 ± 1.7
same,mean adult lifespan of treated plate,[3]; 106 µM,5.01 ± 0.12
same,mean adult lifespan of treated plate,[3]; 530 µM,4.33 ± 0.092
same,mean adult lifespan of treated cohort,[4],31.3 ± 1.2
same,mean adult lifespan of treated cohort,[5],39.5 ± 1
same,mean adult lifespan of treated cohort,[6],27.6 ± 0.89
same,mean adult lifespan of treated cohort,[7],25.5 ± 1
same,mean adult lifespan of treated cohort,[8],26.7 ± 0.74
same,mean adult lifespan of treated cohort,[9],20.2 ± 0.93
same,Kaplan-Meier median lifespan,[10]; 5.3 µM,28
same,Kaplan-Meier median lifespan,[10]; 26.5 µM,24
same,Kaplan-Meier median lifespan,[10]; 106 µM,5.67 ± 1.1
same,Kaplan-Meier median lifespan,[10]; 530 µM,5.67 ± 1.1
same,Kaplan-Meier median lifespan,[11]; 5.3 µM,33 ± 2.8
same,Kaplan-Meier median lifespan,[11]; 26.5 µM,35
same,Kaplan-Meier median lifespan,[11]; 106 µM,6 ± 1.4
same,Kaplan-Meier median lifespan,[11]; 530 µM,5.5 ± 2.1
same,Kaplan-Meier median lifespan,[12]; 0.5 µM,24 ± 3.1
same,Kaplan-Meier median lifespan,[12]; 5 µM,23.6 ± 2.9
same,Kaplan-Meier median lifespan,[12]; 25 µM,26.2 ± 3.4
same,Kaplan-Meier median lifespan,[12]; 26.5 µM,33 ± 2.8
same,Kaplan-Meier median lifespan,[12]; 100 µM,22.4 ± 7
same,Kaplan-Meier median lifespan,[12]; 106 µM,4.67 ± 0.58
same,Kaplan-Meier median lifespan,[12]; 530 µM,4
same,Kaplan-Meier median lifespan,[13],31.7 ± 5.8
same,Kaplan-Meier median lifespan,[14],41.4 ± 3.5
same,Kaplan-Meier median lifespan,[15],28.1 ± 4.4
same,Kaplan-Meier median lifespan,[16],27.7 ± 2.4
same,Kaplan-Meier median lifespan,[17],27.2 ± 3.1
same,Kaplan-Meier median lifespan,[18],21.4 ± 5
O=C(O)CCCCC1CCSS1 (stereo not drawn) [alpha-lipoic acid],mean adult lifespan of treated cohort,[4],27.5 ± 0.76
same,mean adult lifespan of treated cohort,[5],35.9 ± 0.96
same,mean adult lifespan of treated cohort,[6],26.4 ± 0.83
same,mean adult lifespan of treated cohort,[7],18.3 ± 0.61
same,mean adult lifespan of treated cohort,[8],16.3 ± 0.61
same,mean adult lifespan of treated cohort,[9],19.2 ± 0.4
same,Kaplan-Meier median lifespan,[13],28.4 ± 3.2
same,Kaplan-Meier median lifespan,[14],37.2 ± 1.3
same,Kaplan-Meier median lifespan,[15],25.8 ± 1.5
same,Kaplan-Meier median lifespan,[16],18.4 ± 4.2
same,Kaplan-Meier median lifespan,[17],15.6 ± 2.1
same,Kaplan-Meier median lifespan,[18],19.2 ± 1.5
CC(=O)Oc1ccccc1C(=O)O [aspirin],mean adult lifespan of treated cohort,[4],27 ± 0.81
same,mean adult lifespan of treated cohort,[5],37.2 ± 1
same,mean adult lifespan of treated cohort,[6],28 ± 1.1
same,mean adult lifespan of treated cohort,[7],18.3 ± 0.55
same,mean adult lifespan of treated cohort,[8],17 ± 0.49
same,mean adult lifespan of treated cohort,[9],17.9 ± 0.3
same,Kaplan-Meier median lifespan,[13],27.8 ± 3.7
same,Kaplan-Meier median lifespan,[14],37.5 ± 1.9
same,Kaplan-Meier median lifespan,[15],28.3 ± 4.4
same,Kaplan-Meier median lifespan,[16],17.4 ± 4.3
same,Kaplan-Meier median lifespan,[17],16.4 ± 1.4
same,Kaplan-Meier median lifespan,[18],17.5 ± 1.1
COc1cc(/C=C/C(=O)CC(=O)/C=C/c2ccc(O)c(OC)c2)ccc1O [curcumin],mean adult lifespan of treated cohort,[4],21.9 ± 0.82
same,mean adult lifespan of treated cohort,[5],30.5 ± 0.87
same,mean adult lifespan of treated cohort,[6],21.3 ± 0.66
same,mean adult lifespan of treated cohort,[7],19.5 ± 0.66
same,mean adult lifespan of treated cohort,[8],15.6 ± 0.46
same,mean adult lifespan of treated cohort,[9],17.1 ± 0.34
same,Kaplan-Meier median lifespan,[13],23.2 ± 1.7
same,Kaplan-Meier median lifespan,[14],30.7 ± 2.2
same,Kaplan-Meier median lifespan,[15],21.2 ± 2.8
same,Kaplan-Meier median lifespan,[16],19.3 ± 2
same,Kaplan-Meier median lifespan,[17],15.3 ± 1.6
same,Kaplan-Meier median lifespan,[18],17.7 ± 0.82
O=c1c(O)c(-c2ccc(O)c(O)c2)oc2cc(O)cc(O)c12 [quercetin],mean adult lifespan of treated cohort,[4],26.5 ± 0.79
same,mean adult lifespan of treated cohort,[5],33 ± 0.87
same,mean adult lifespan of treated cohort,[6],25.2 ± 0.76
same,mean adult lifespan of treated cohort,[7],17.4 ± 0.69
same,mean adult lifespan of treated cohort,[8],15.9 ± 0.49
same,mean adult lifespan of treated cohort,[9],17.6 ± 0.32
same,Kaplan-Meier median lifespan,[13],28 ± 2.2
same,Kaplan-Meier median lifespan,[14],35.5 ± 1.7
same,Kaplan-Meier median lifespan,[15],24.8 ± 2.5
same,Kaplan-Meier median lifespan,[16],15.2 ± 2.1
same,Kaplan-Meier median lifespan,[17],15 ± 1.8
same,Kaplan-Meier median lifespan,[18],17.8 ± 0.96
CCCC(CCC)C(=O)O [valproic acid],mean adult lifespan of treated cohort,[4],21.8 ± 0.98
same,mean adult lifespan of treated cohort,[5],32.9 ± 0.96
same,mean adult lifespan of treated cohort,[6],21.9 ± 0.85
same,mean adult lifespan of treated cohort,[7],18.2 ± 0.56
same,mean adult lifespan of treated cohort,[8],14.7 ± 0.48
same,mean adult lifespan of treated cohort,[9],17.6 ± 0.42
same,Kaplan-Meier median lifespan,[13],22 ± 2.6
same,Kaplan-Meier median lifespan,[14],35.3 ± 1.9
same,Kaplan-Meier median lifespan,[15],21.9 ± 1.2
same,Kaplan-Meier median lifespan,[16],17.4 ± 3.1
same,Kaplan-Meier median lifespan,[17],14.6 ± 0.98
same,Kaplan-Meier median lifespan,[18],17.6 ± 0.54
